Values of other authors, collected in patent US20190000853A1, “ANTIVIRAL 4-(2-AMINO-6-HETEROCYLYL-9H-PURIN-9-YL)-2-CYCLOPENTENE-1 -METHANOL COMPOUNDS” (THE UNIVERSITY OF LIVERPOOL, priority 2015, published 2019).

System: HIV-1
Details: literature comparison with Abacavir

Question: Which “Antiviral potency relative to Abacavir” value does the source give for Nc1nc(N2CCC2)c2ncn([C@H]3C=C[C@@H](CO)C3)c2n1 [ABC1-4] here?
Answer: equipotent to Abacavir
